The text below walks through data of patent US4123530A, “N-cyclohexyl-piperazino acetamides and propionamides” (Camillo Corvi S.p.A., priority 1976, dated 1978).

A value given as a limit tells only on which side of the number the result lay.

One data set has as its system Wistar rats. The experiment in a line: Sub-chronic toxicity (30 days per ora). The conditions noted are these: oral 400 mg/kg. It counts as in vivo. The protocol:
(2) Sub-chronic toxicity (C/63)
Eighty Wistar rats were divided in 4 groups of twenty each (10 males and 10 fewales). Compound (C/63) was given per ora to three groups of animals for a period of 30 days in quantities of 100, 200 and 400 mg/kg.

A further data set has as its system Withdrawal ulcer. The experiment in a line: Anti-ulcer activity: Withdrawal ulcer. It counts as in vivo. The conditions noted are these: 100 mg/kg os.
Another data set deals with Guinea-pig Ileus. Briefly: spasmolytic activity in vitro, Guinea-pig Ileus.
Data set [1] relates to Phenylbutazone-histamine ulcer. The experiment in a line: Anti-ulcer activity: Phenylbutazone-histamine ulcer. It counts as in vivo.
Another data set is described as follows: acute toxicity, rats. The conditions noted are these: rat, in vivo, po, os, read-out: DL/50 (the source's name).
Another data set relates to Reserpine ulcer. The experiment in a line: Anti-ulcer activity: Reserpine ulcer with rats. It is filed as in vivo.
The test system of a further data set is Shay ulcer. The experiment in a line: Anti-ulcer activity: Shay ulcer. It counts as in vivo. The conditions noted are these: 300 mg/kg os.
The nature of a further data set: acute toxicity, mice. The conditions noted are these: mouse, in vivo, read-out: DL/50 (the source's name).
Data set [2] concerns Ulcer due to activity prevention. Briefly: Anti-ulcer activity: Ulcer due to activity prevention (Rossi & Coll.). It counts as in vivo.
Another data set concerns intestine peristaltis. The experiment in a line: spasmolytic activity in vivo: activity on intestine peristaltis (mouse). The source says:
Activity of C/63 on intestine peristaltis (mouse)

Regarding `O=C(CN1CCNCC1)NC1CCCCC1` [C/63, N-[1-piperazinylacetyl]-cyclohexylamine], in the data set on Wistar rats, the “appearance of damages due to toxicity (bloodcrasis, biochemical blood analysis, weight, histological examination of the organs)” value is on record as “no appearance of damages due to the toxicity of the drug”. The Inhibition % with Withdrawal ulcer was 33%; in data set [1] (25 mg/kg os) it was 10%; in data set [1] (50 mg/kg os), 43%; in data set [1] (100 mg/kg os), 72%; with Reserpine ulcer (300 mg/kg os), 25%; in the data set on Shay ulcer, 72%. Moreover, the Inhibition % in [2] (50 mg/kg os) is reported as 19%; in data set [2] (100 mg/kg os) it was 32%; in data set [2] (200 mg/kg os) it was 45%; with intestine peristaltis (100 mg/kg os) it was 6%; in the data set on intestine peristaltis (200 mg/kg os) it was 23%. The “DE50 against Ach.” value with Guinea-pig Ileus (against Ach.) is more than 40 µg/mL. Moreover, the “DE50 against BaCl2” value in the data set with Guinea-pig Ileus (against BaCl2) is more than 40 µg/mL. Besides, the DE50 against histamine in the data set on Guinea-pig Ileus (against histamine) is more than 40 µg/mL. Besides, the LD50 in “acute toxicity, rats” amounted to 3900 mg/kg; in the data set “acute toxicity, mice” (iv), 271 mg/kg; in the data set “acute toxicity, mice” (po, os), 1970 mg/kg.
For `CC1CCC(NC(=O)CN2CCNCC2)CC1` (stereo not drawn) [C/82, N-(1-piperazinylacetyl)-4-methyl-cyclohexylamine], the Inhibition % is recorded as 30% in the data set on Withdrawal ulcer; 33% in data set [1] (50 mg/kg os); 60% in [1] (100 mg/kg os); 47% in the data set on Reserpine ulcer (100 mg/kg os); 70% in the data set with Reserpine ulcer (300 mg/kg os); 30% in data set [2] (100 mg/kg os). The compound also showed an Inhibition % in data set [2] (200 mg/kg os) of 35%. Further, the anticholinergic activity result in the data set “anticholinergic activity” was “no anticholinergic activity”. For the same compound, the LD50 in “acute toxicity, mice” (po, os) worked out at 1790 mg/kg.
